Common to all, as to assay type: cell-based, human
One experiment concerns HOP-92. Nature of the experiment: NCI anticancer screen, HOP-92. The settings on record: HOP-92, Non-Small Cell Lung, 48 h; for GI50 / LC50 (concentration killing 50% of starting cells): Homo sapiens.
For another experiment, the system named is HOP-62. Nature of the experiment: NCI anticancer screen, HOP-62. The settings on record: HOP-62, Non-Small Cell Lung, 48 h.
Another experiment has as its system RPMI-8226. As to the kind of experiment: NCI anticancer screen, RPMI-8226. The settings on record: RPMI-8226, Leukemia, 48 h.
The next experiment has as its system CCRF-CEM. Nature of the experiment: NCI anticancer screen, CCRF-CEM. The settings on record: Leukemia, 48 h.
Setting [1] is: Homo sapiens, read-out: LC50 (the source's name).

The source of these data is patent US20080280920A1, “Plasminogen Activator Inhibitor-1 Inhibitors” (priority 2005, published 2008).

By GI50 is commonly meant the concentration giving 50% growth inhibition. A low value points to greater sensitivity of the cells. As usually defined, the TGI is the concentration giving total growth inhibition. Low values mean greater sensitivity of the cells, high ones lower sensitivity of the cells. One may read the LC50 as the concentration lethal to half of the exposed cells or organisms. A high value points to a less lethal substance.

In turn, `CCOC(=O)[C@H](Cc1ccccc1)NCc1cc(CN2CCN(c3ccccn3)CC2)c(O)c(OC)c1` [Compound Q012147T] returned a GI50 in the experiment with HOP-92 of 24.8 µM. That is a double-digit micromolar value.
For the compound `CCOC(=O)c1ccc(CNCc2cc(CN3CCN(c4ccccn4)CC3)c(O)c(OC)c2)cc1` [Compound Q012135T], the TGI was determined as 43.9 µM in the experiment on HOP-62, 31.8 µM with HOP-92, 24.5 µM in the experiment on RPMI-8226 and 48.4 µM in the experiment on CCRF-CEM. For the same compound, the GI50 in the experiment on HOP-62 (Homo sapiens) is 20.6 µM; with HOP-92, 12.8 µM; in the experiment with RPMI-8226 (Homo sapiens), 7.14 µM; with CCRF-CEM (Homo sapiens) it was 14.1 µM. Besides, in the experiment on HOP-62 (Homo sapiens), the LC50 was determined as 93.8 µM. This compound also yielded an LC50 (concentration killing 50% of starting cells) in the experiment with HOP-92 of 79.1 µM. For the same compound, the CC50 is 7.14 µM with RPMI-8226 (setting [1]) and 14.1 µM in the experiment with CCRF-CEM (setting [1]).
`COc1cc(CNc2ccc(C(=O)OC(C)(C)C)cc2)cc(CN2CCN(c3ccccn3)CC2)c1O` [Compound Q012145T] had a GI50 in the experiment on HOP-92 of 6.57 µM.
In the experiment on HOP-92, `COc1cc(CNCC2CCN(C(=O)OC(C)(C)C)CC2)cc(CN2CCN(c3ccccn3)CC2)c1O` [Compound Q012132, 2-Methoxy-4-({[(N-t-butyloxycarbonylpiperidin-4-yl)methyl]amino}methyl)-6-[(4-pyridin-2-ylpiperazin-1-yl)methyl]phenol] returned a TGI of 26.6 µM, a GI50 of 10.7 µM and an LC50 (concentration killing 50% of starting cells) of 66.3 µM.
As to `CC(C)(C)OC(=O)Nc1ccc(O)c(C(=O)NCCOC(=O)NCCNC(=O)c2cc(OCc3ccccc3)ccc2OCc2ccccc2)c1` [Compound Q012052, 2-[5-(BOC-amino)-2-hydroxybenzoylamino]ethyl 2-[2,5-bis-(benzyl-oxy)benzoylamino]ethylcarbamate], the GI50 with HOP-62 (Homo sapiens) is > 100 µM; in the experiment with HOP-92, 83.1 µM; in the experiment on RPMI-8226 (Homo sapiens), 7.58 µM; in the experiment on CCRF-CEM (Homo sapiens), > 100 µM.
